{
  "source": "patent US9403832B2",
  "about": "“Pyrazolo[1,5-a]pyrimidine-based compounds, compositions comprising them, and methods of their use” (Lexicon Pharmaceuticals, Inc., priority 2012, dated 2016)",
  "key": {"[1]": {"molecular_target": "T1, AAK1 (Homo sapiens, UniProt Q2M2I8)", "T1 construct": "NP_055726.2", "T1 sequence (Q2M2I8 1-863 isoform Q2M2I8-2)": "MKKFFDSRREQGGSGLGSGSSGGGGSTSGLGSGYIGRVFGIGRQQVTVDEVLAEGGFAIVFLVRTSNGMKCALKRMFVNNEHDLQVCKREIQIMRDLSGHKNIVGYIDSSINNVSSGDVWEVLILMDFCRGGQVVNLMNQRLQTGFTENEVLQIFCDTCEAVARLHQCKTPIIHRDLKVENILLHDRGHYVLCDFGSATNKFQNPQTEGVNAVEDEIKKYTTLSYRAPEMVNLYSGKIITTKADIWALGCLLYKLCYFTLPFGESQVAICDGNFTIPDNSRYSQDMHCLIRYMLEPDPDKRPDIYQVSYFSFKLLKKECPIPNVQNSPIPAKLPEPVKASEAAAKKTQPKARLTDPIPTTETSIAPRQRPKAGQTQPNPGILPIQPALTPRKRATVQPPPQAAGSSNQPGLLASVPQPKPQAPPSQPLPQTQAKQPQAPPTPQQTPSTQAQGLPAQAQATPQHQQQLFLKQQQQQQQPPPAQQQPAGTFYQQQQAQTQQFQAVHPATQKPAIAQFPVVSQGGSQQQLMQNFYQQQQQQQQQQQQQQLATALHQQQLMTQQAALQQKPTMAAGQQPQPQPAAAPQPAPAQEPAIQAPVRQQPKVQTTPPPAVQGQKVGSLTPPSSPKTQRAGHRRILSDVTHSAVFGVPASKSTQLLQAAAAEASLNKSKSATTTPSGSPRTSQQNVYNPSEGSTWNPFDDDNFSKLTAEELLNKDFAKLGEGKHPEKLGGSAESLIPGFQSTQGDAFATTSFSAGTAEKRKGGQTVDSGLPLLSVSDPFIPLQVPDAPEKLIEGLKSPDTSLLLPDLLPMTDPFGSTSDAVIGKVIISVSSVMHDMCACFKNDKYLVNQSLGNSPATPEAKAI", "assay": "P81 filter plate assay", "type": "biochemical", "conditions": "full-length human AAK1, Mu2 substrate, 33P-ATP", "outline": "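Full-length human AAK1 (0.2 nM, 2×) was pre-incubated 10 min at RT with compounds (top concentration 96 μM in the dilution plate), then reacted 1 h at RT with full-length human Mu2 (0.2 μM, 2×), cold ATP (2 μM, 2×) and ³³P-ATP. Reactions were stopped with phosphoric acid and captured on P81 filters for scintillation counting.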"}, "[2]": {"molecular_target": "T1, AAK1", "assay": "HEK281 cell-based assay (CBA)", "conditions": "HEK293F cells transfected with full length human AAK1 and AP2M1; phospho-mu2 Western blot; 3 hours incubation", "protocol": "HEK293F cells were cultured in media containing DMEM (Gibco, cat. #11965), 10% FBS (SAFC Biosciences, cat. #12103C), 1× GPS (glutamine, penicillin and streptomycin). On day one, cells were plated on a 10 cm dish so that they are ˜80% confluent at time of transfection. Roughly 12 million cells were in a 10 cm dish at time of transfection. On day two, each dish was transfected with 48 ug DNA and 144 ul Lipofectamine 2000 (Invitrogen, cat. #11668-019). The DNA was comprised of a mixture (per 10 cm dish) containing 3 ug AAK1/HA/pIRES (full length human, NCBI accession no. NP_055726.2), 45 μg Flag/AP2MI/pcDNA (full length human), and 1.5 ml OPTI-MEM. The Lipofectamine 2000 is made up of a mixture (per 10 cm dish) containing 144 μl Lipofectamine 2000 and 1.5 ml OPTI-MEM. Each mixture was transferred to individual 15 ml tubes and incubated at RT for 5 minutes, and then the two mixes were combined and incubated at RT for 20 minutes.\nGrowth media was then aspirated from each 10 cm plate and replaced with 10 ml of DMEM+10% FBS (no GPS). Finally, 3 ml DNA/Lipofectamine mix was added to each 10 cm dish and mix gently followed by incubate of plate overnight at 37° C. and 5% CO2.\nOn day three, compounds were diluted in 100% DMSO at 1000× final concentration, followed by 3-fold serial dilutions for a total of 5 concentrations tested. Four compounds were tested per 10 cm dish. One ul of each compound dilution was then pipetted into a deep-well, 96-well plate, followed by addition of 500 μl DMEM+0.5% FBS into each well for a 2× final concentration of each compound. Cells were resuspended in a 10 cm dish by simple pipetting (HEK293 cells come off the plate that easy at this point) and then transferred to a 50 ml conical tube and pelleted by centrifugation at 1000 rpm for 5 min. Cell pellets were then resuspended in 2.75 ml DMEM+0.5% FBS per 10 cm dish and 100 μl of cell suspension transferred into each well of 96-well TC plate. Finally, 100 μl of 2× compound diluted in DMEM+0.5% FBS was then added into wells containing cell suspension for a 1× final concentration. Plates were then incubated at 37° C. and 5% CO2 for 3 hours followed by transferring of cell suspensions from each well into 12-tube PCR strips. The PCR strips were spun in a tip rack at 1000 rpm for 5 minutes to pellet cells and media was then removed by pipetting without disturbing the cell pellet.\nTo prepare for Western Blot analysis, cell pellets were resuspend in 40 ul 1× LDS-PAGE sample buffer (Invitrogen, cat.# NP0008)+2× Halt phophatase and protease inhibitor cocktail (Thermo Scientific, cat. #1861284), followed by sonicating each with microtip sonicator set at 5 for 8-10 seconds. Five ul of 10× NuPage Sample Reducing Agent (with 50 mM DTT) was to each sample followed by heat denaturing at 70 C for 10 min on PCR machine. A total of 10 μl per sample was loaded into each lane of a 4-20% Tris-Glycine Criterion 26-well gel (Biorad, cat. #345-0034) for the phospho-mu2 blot and 10 μl per lane in a 4-12% Bis-Tris (+MES buffer) NuPAGE 26-well gel (Invitrogen, cat.# WG1403BX10) for the mu2 blot. For controls, 2 ng of phospho-mu2 or 20 ng mu2/Flag proteins were loaded in the last well of each gel. After SDS-PAGE, samples on each gel were transferred to PVDF membrane using an iBlot and membranes were blocked for one hour in TBST+5% milk, followed by wash 3× for 5-10 min with TBST. Criterion gels were probed with rabbit anti-phospho-mu2 (1:5000; a rabbit polyclonal antibody produced by New England Peptide and affinity purified at Lexicon) in TBST+5% BSA, whereas, NuPAGE gels were probed with mouse anti-Flag (1:500; Sigma, cat.# F1804) in TBST+5% milk, and these primary antibodies were incubated overnight at 4° C. on a rocker."}},
  "data": [
    {"smiles": "COCC(C)(C)OC(=O)N1CCN(c2ccn3ncc(-c4cccnc4OC)c3n2)CC1", "note": "[1-methoxy-2-methylpropan-2-yl 4-(3-(2-methoxypyridin-3-yl)pyrazolo[1,5-a]pyrimidin-5-yl)piperazine-1-carboxylate]", "values": [
      {"measurement": "IC50", "setting": "[1]", "result": "≤ 10", "unit": "nM"},
      {"measurement": "IC50", "setting": "[2]", "result": "≤ 1000", "unit": "nM"}
    ]},
    {"smiles": "COCC(C)OC(=O)N1CCN(c2ccn3ncc(-c4cccnc4OC)c3n2)CC1", "note": "(centres unmarked) [1-methoxypropan-2-yl 4-(3-(2-methoxypyridin-3-yl)pyrazolo[1,5-a]pyrimidin-5-yl)piperazine-1-carboxylate]", "values": [
      {"measurement": "IC50", "setting": "[1]", "result": "≤ 10", "unit": "nM"},
      {"measurement": "IC50", "setting": "[2]", "result": "≤ 10", "unit": "nM"}
    ]},
    {"smiles": "COc1ncccc1-c1cnn2ccc(N3CCN(C(=O)OCC(F)(F)F)CC3)nc12", "note": "[2,2,2-trifluoroethyl 4-(3-(2-methoxypyridin-3-yl)pyrazolo[1,5-a]pyrimidin-5-yl)piperazine-1-carboxylate]", "values": [
      {"measurement": "IC50", "setting": "[1]", "result": "≤ 10", "unit": "nM"},
      {"measurement": "IC50", "setting": "[2]", "result": "≤ 10", "unit": "nM"}
    ]},
    {"smiles": "COCCOC(=O)N1CCN(c2ccn3ncc(-c4ccc(C)nc4OC)c3n2)CC1", "note": "[2-methoxyethyl 4-(3-(2-methoxy-6-methylpyridin-3-yl)pyrazolo[1,5-a]pyrimidin-5-yl)piperazine-1-carboxylate]", "values": [
      {"measurement": "IC50", "setting": "[1]", "result": "≤ 10", "unit": "nM"},
      {"measurement": "IC50", "setting": "[2]", "result": "≤ 100", "unit": "nM"}
    ]},
    {"smiles": "[2H]C1([2H])N(C(=O)OCCOC)C([2H])([2H])C([2H])([2H])N(c2ccn3ncc(-c4cccnc4OC)c3n2)C1([2H])[2H]", "note": "[2-methoxyethyl 4-(3-(2-methoxypyridin-3-yl)pyrazolo[1,5-a]pyrimidin-5-yl)-d8-piperazine-1-carboxylate]", "values": [
      {"measurement": "IC50", "setting": "[1]", "result": "≤ 10", "unit": "nM"},
      {"measurement": "IC50", "setting": "[2]", "result": "≤ 100", "unit": "nM"}
    ]},
    {"smiles": "COCCOC(=O)N1CCN(c2ccn3ncc(-c4cc(F)ccc4OC)c3n2)CC1", "note": "[2-methoxyethyl 4-(3-(5-fluoro-2-methoxyphenyl)pyrazolo[1,5-a]pyrimidin-5-yl)piperazine-1-carboxylate]", "values": [
      {"measurement": "IC50", "setting": "[1]", "result": "≤ 10", "unit": "nM"},
      {"measurement": "IC50", "setting": "[2]", "result": "≤ 10", "unit": "nM"}
    ]},
    {"smiles": "COCCOC(=O)N1CCN(c2ccn3ncc(-c4cc(F)cnc4OC)c3n2)CC1", "note": "[2-methoxyethyl 4-(3-(5-fluoro-2-methoxypyridin-3-yl)pyrazolo[1,5-a]pyrimidin-5-yl)piperazine-1-carboxylate]", "values": [
      {"measurement": "IC50", "setting": "[1]", "result": "≤ 10", "unit": "nM"},
      {"measurement": "IC50", "setting": "[2]", "result": "≤ 100", "unit": "nM"}
    ]},
    {"smiles": "COc1ncccc1-c1cnn2ccc(N3CCN(C(=O)C4(N)CCCC4)CC3)nc12", "note": "[(1-aminocyclopentyl)(4-(3-(2-methoxypyridin-3-yl)pyrazolo[1,5-a]pyrimidin-5-yl)piperazin-1-yl)methanone]", "values": [
      {"measurement": "IC50", "setting": "[1]", "result": "≤ 10", "unit": "nM"},
      {"measurement": "IC50", "setting": "[2]", "result": "≤ 10", "unit": "nM"}
    ]},
    {"smiles": "COc1ncccc1-c1cnn2ccc(N3CCN(C(=O)[C@@H](N)[C@@H](C)OC)CC3)nc12", "note": "[(2S,3R)-2-amino-3-methoxy-1-(4-(3-(2-methoxypyridin-3-yl)pyrazolo[1,5-a]pyrimidin-5-yl)piperazin-1-yl)butan-1-one]", "values": [
      {"measurement": "IC50", "setting": "[1]", "result": "≤ 10", "unit": "nM"},
      {"measurement": "IC50", "setting": "[2]", "result": "≤ 100", "unit": "nM"}
    ]},
    {"smiles": "COc1ncccc1-c1cnn2ccc(N3CCN(C(=O)C4(N)CCOC4)CC3)nc12", "note": "(centres unmarked) [(3-aminotetrahydrofuran-3-yl)(4-(3-(2-methoxypyridin-3-yl)pyrazolo[1,5-a]pyrimidin-5-yl)piperazin-1-yl)methanone]", "values": [
      {"measurement": "IC50", "setting": "[1]", "result": "≤ 10", "unit": "nM"},
      {"measurement": "IC50", "setting": "[2]", "result": "≤ 100", "unit": "nM"}
    ]},
    {"smiles": "COc1ncccc1-c1cnn2ccc(N3CCN(C(=O)N4CCCCC4)CC3)nc12", "note": "[(4-(3-(2-methoxypyridin-3-yl)pyrazolo[1,5-a]pyrimidin-5-yl)piperazin-1-yl)(piperidin-1-yl)methanone]", "values": [
      {"measurement": "IC50", "setting": "[1]", "result": "≤ 10", "unit": "nM"},
      {"measurement": "IC50", "setting": "[2]", "result": "≤ 100", "unit": "nM"}
    ]},
    {"smiles": "COC[C@@H](C)OC(=O)N1CCN(c2ccn3ncc(-c4cccnc4OC)c3n2)CC1", "note": "[(R)-1-methoxypropan-2-yl 4-(3-(2-methoxypyridin-3-yl)pyrazolo[1,5-a]pyrimidin-5-yl)piperazine-1-carboxylate]", "values": [
      {"measurement": "IC50", "setting": "[1]", "result": "≤ 10", "unit": "nM"},
      {"measurement": "IC50", "setting": "[2]", "result": "≤ 1000", "unit": "nM"}
    ]},
    {"smiles": "COc1nc(C)ccc1-c1cnn2ccc(N3CCN(C(=O)O[C@@H]4CCOC4)CC3)nc12", "note": "[(R)-tetrahydrofuran-3-yl 4-(3-(2-methoxy-6-methylpyridin-3-yl)pyrazolo[1,5-a]pyrimidin-5-yl)piperazine-1-carboxylate]", "values": [
      {"measurement": "IC50", "setting": "[1]", "result": "≤ 10", "unit": "nM"},
      {"measurement": "IC50", "setting": "[2]", "result": "≤ 100", "unit": "nM"}
    ]}
  ]
}
